Data reported in the NIST ThermoML archive (doi:10.1016/j.jct.2019.04.014).

Assays:
[1] = for Normal melting temperature: Crystal, DTA; for vapor or sublimation pressure: Liquid, Determined from thermal gravimetric analysis data
[2] = Molar enthalpy of transition or fusion; conditions: Crystal; DSC
[3] = Boiling temperature at pressure P; conditions: 94.4 kPa; Liquid; DSC

[O-][n+]1ccccc1S [2-mercaptopyridine N-oxide]
Conditions	Molar enthalpy of transition or fusion [kcal/mol]	Normal melting temperature [°C]
[1]	–	71.20
[2]	3.18	–

Cc1cc(C)c[n+]([O-])c1 [3,5-dimethylpyridine N-oxide]
Conditions	Boiling temperature at pressure P [°C]	Molar enthalpy of transition or fusion [kcal/mol]	Normal melting temperature [°C]
[1]	–	–	101.30
[2]	–	2.96	–
[3]	291.70	–	–

[O-][n+]1cccc(O)c1 [3-hydroxypyridine-N-oxide]
Conditions	Molar enthalpy of transition or fusion [kcal/mol]	Normal melting temperature [°C]
[1]	–	189.70
[2]	4.5	–

Cc1ccc[n+]([O-])c1 [3-picoline N-oxide]
[1]
Conditions	vapor or sublimation pressure [kPa]
433.15 K	4.26
435.15 K	4.48
440.15 K	5.4
443.15 K	5.93
445.15 K	6.29
447.15 K	6.89
450.15 K	7.47
453.15 K	8.23
455.15 K	8.91
457.15 K	9.28
460.15 K	10.15
463.15 K	10.93
465.15 K	11.69
467.15 K	12.28
470.15 K	13.42
473.15 K	14.64
475.15 K	15.17
477.15 K	16.14
480.15 K	17.37
483.15 K	18.4
485.15 K	19.19
487.15 K	20.28
490.15 K	21.69
493.15 K	23.24
495.15 K	24.75
497.15 K	25.56
500.15 K	27.36
503.15 K	29.43
505.15 K	31
507.15 K	32.53
510.15 K	35.18
513.15 K	37.62
515.15 K	38.66
517.15 K	40.64

Conditions	Boiling temperature at pressure P [°C]	Molar enthalpy of transition or fusion [kcal/mol]	Normal melting temperature [°C]
[1]	–	–	37.10
[2]	–	2.52	–
[3]	283.80	–	–

O=C(O)c1ccc[n+]([O-])c1 [3-pyridinecarboxylic acid N-oxide]
Conditions	Molar enthalpy of transition or fusion [kcal/mol]	Normal melting temperature [°C]
[1]	–	258.30
[2]	5.63	–

Cc1cc[n+]([O-])cc1 [4-methylpyridine-N-oxide]
Conditions	Boiling temperature at pressure P [°C]	Molar enthalpy of transition or fusion [kcal/mol]	Normal melting temperature [°C]
[1]	–	–	184.60
[2]	–	4.51	–
[3]	287.30	–	–

O=[N+]([O-])c1cc[n+]([O-])cc1 [4-nitropyridine N-oxide]
Conditions	Molar enthalpy of transition or fusion [kcal/mol]	Normal melting temperature [°C]
[1]	–	160.80
[2]	4.18	–

O=C(O)c1cc[n+]([O-])cc1 [4-pyridinecarboxylic acid N-oxide]
Conditions	Molar enthalpy of transition or fusion [kcal/mol]	Normal melting temperature [°C]
[1]	–	268.50
[2]	5.76	–

O=C(O)c1ccccc1 [benzoic acid]
Conditions	Normal melting temperature [°C]
[1]	121.60

NC(=O)c1ccc[n+]([O-])c1 [nicotinamide N-oxide]
Conditions	Normal melting temperature [°C]
[1]	289.50

O=C(O)c1cccc[n+]1[O-] [picolinic acid N-oxide]
Conditions	Boiling temperature at pressure P [°C]	Molar enthalpy of transition or fusion [kcal/mol]	Normal melting temperature [°C]
[1]	–	–	163.80
[2]	–	7.21	–
[3]	267.60	–	–

[O-][n+]1ccccc1 [pyridine N-oxide]
[1]
Conditions	vapor or sublimation pressure [kPa]
425.15 K	2.5
427.15 K	2.66
433.15 K	3.33
435.15 K	3.59
440.15 K	4.28
443.15 K	4.86
445.15 K	5.22
447.15 K	5.5
450.15 K	6.19
453.15 K	6.84
455.15 K	7.36
457.15 K	7.89
460.15 K	8.88
463.15 K	9.76
465.15 K	10.41
467.15 K	11.15
470.15 K	12.44
473.15 K	13.57
475.15 K	14.4
477.15 K	15.28
480.15 K	16.58

Conditions	Boiling temperature at pressure P [°C]	Molar enthalpy of transition or fusion [kcal/mol]	Normal melting temperature [°C]
[1]	–	–	63.80
[2]	–	2.31	–
[3]	267.60	–	–

[O-][n+]1cccc2ccccc21 [quinoline 1-oxide]
Conditions	Molar enthalpy of transition or fusion [kcal/mol]	Normal melting temperature [°C]
[1]	–	55.40
[2]	2.45	–
